Assay results taken from patent US20230263915A1, “RADIOLABELED COMPOUNDS” (King's College London, priority 2020, published 2023).

Key:
[1] = LogD measurement, shake-flask partition between 1-octanol and PBS; assay type: physicochemical; details: 1-octanol / PBS pH 7.4
Procedure: The lipophilicity of ^18F-FM074 and ^18F-FM074-Ox was determined by measuring their logD values using a variation of the conventional shake-flask method, namely a conventional partition method between 1-octanol and phosphate buffered saline (PBS), pH 7.4. The 1-octanol was saturated with PBS before use. The radiotracer (1 μL) in ethanol was added to a mixture of PBS (200 μL) and 1-octanol (200 μL) in a 1.5 mL Eppendorf vial (n =6). The vial was sealed and shaken, then centrifuged at 3000 g for 10 min. A 100 μL aliquot from each layer was drawn was added to separate tubes. The radioactivity content of each fraction was measured in a gamma counter. The LogDoct/PBS as calculated as follows: log [(cpm in the 1-octanol layer-cpm 1-octanol blank)/(cpm in the PBS layer-cpm pbs blank)].

[2] = Biodistribution in healthy Wistar rats; assay type: in vivo; details: for uptake by major organs (brain, heart, lung, spleen): i.v., 1, 5 and 30 min post-injection
Procedure: Male Wistar rats (290-355 g) were placed in a warm box at 37° C. before being transferred to an anaesthesia induction box under an O2 flow rate of 1 L/min with isofluorane levels of 5%. The anaesthetised rat was transferred to an anaesthesia mask with an O2 flow rate of 1 L/min with isofluorane levels of 2.5%. The radiotracer (0.5-2.2 MBq, 200-600 μL in maximum 5% EtOH in PBS) was injected intravenously via a cannula inserted into a tail vein. The animals were sacrificed by cervical dislocation at 1, 5, and 30 min post-injection (n=3/group). The heart was immediately removed and rinsed with saline to washout the blood. Organs of interest as well as blood and urine were collected and the radioactivity measured in a gamma counter.

[3] = tested on: left ventricle function; assay: Echocardiography (cardiac ultrasound) in Doxorubicin minipump rats; assay type: in vivo
Procedure: In order to assess cardiac function all rats were subjected to a cardiac ultrasound (Vevo 770™, VisualSonics) one day prior to osmotic pump implantation and a second ultrasound one day prior to PET/CT imaging. Rats were anaesthetized with 2% isoflurane in 100% oxygen and maintained at 37° C. via a homoeothermic platform and rectal thermometer. High-resolution parasternal left ventricle (LV) long axis M-mode and B-mode images were obtained using a RMV710B transducer. Images were analysed offline using Vevo Software to determine LV function.
(§1) Male Wistar rats (280-300 g) were used in all experiments. Subcutaneous 7-day osmotic pumps (Alzet), containing either Doxorubicin (Cambridge Bioscience, 30 mg/kg cumulative dose) or vehicle (sterile 0.9% NaCl), were inserted into rats under 2% isoflurane in 100% oxygen.

[4] = Chemoselectivity study: oxidation by other ROS, radioHPLC; details: in vitro; for reactivity to other biologically relevant ROS: qualitative
Procedure: The different oxidants were prepared in PBS (900 μL). The ^18F-labelled compound was formulated as 0.5-2 MBq in 100 μL ethanol and added to the oxidant PBS solution. The final reaction mixture contains the ^18F-labelled compound (0.5-2 MBq) in the presence of 100 μM oxidant in PBS with 10% ethanol (final volume 1000 μL). The reaction was kept at room temperature for 5 min, after which it was injected into the HPLC for analysis. • Superoxide (O2^−): The ^18F-labelled compound in ethanol (100 μL) was added to PBS (900 μL) and the resulting solution was then added to a vial containing solid KO2 (1 mg), to make up a reaction mixture with 10 mM O2^−. • Hydrogen peroxide (H202): H2O2 (10 mM stock solution, 10 μL) was diluted in PBS (890 μL) followed by addition of the ^18F-labelled compound in ethanol (100 μL), to a final concentration of 100 μM. • Hydroxyl radical (⋅OH): hydroxyl radicals were generated in situ by reacting hydrogen peroxide (H202, 100 μM) with iron II ([…]). FeSO2.7H2O (5 mM stock, 200 μL) was diluted in PBS (690 μL) and H2O2 (10 mM stock, 10 μL) was added, followed by the ^18F-labelled compound in 100 μL ethanol. • Iron (II) sulfate heptahydrate (Fe^2+) (control): FeSO2.7H2O (5 mM stock, 200 μL) was diluted to a final concentration of 1000 μM in PBS (700 μL), and the ^18F-labelled compound in 100 μL ethanol was added after. • tert-butyl hydroperoxide (TBHP): TBHP (10 mM stock, 10 μL) was diluted in PBS (890 μL) followed by addition of the ^18F-labelled compound in ethanol, to a final concentration of 100 μM. • Tert-butoxy radical (t-BuO⋅): t-butoxy radicals were generated in situ by reacting tert-butyl hydroperoxide (TBHP, 100 μM) with Fe^2+ (1000 μM). FeSO2.7H2O (5 mM stock, 200 μL) was diluted in PBS (690 μL) and TBHP (10 mM stock, 1 μL) was added, followed by the ^18F-labelled compound in ethanol. • Peroxynitrite (ONOO^−): peroxynitrite was generated in situ by spontaneous decomposition of 3-morpholinosydnomine (SIN-1) in solution. […]

[5] = Stability tests monitored by HPLC in ethanol / PBS; assay type: physicochemical
Procedure: (§2) Stability tests monitored by HPLC indicate that ^18F-FM074 is stable in both pure ethanol and 1% ethanol in PBS in the presence of ascorbic acid (0.01 mg/mL) for 4 h (not tested for longer). When incubated in rat serum at 37° C., 90% of ^18F-FM074 was intact in 1 hour (FIG. 3(A)). The stability of ^18F-FM108 in PBS was also determined and it was stable in 30 minutes (FIG. 3(B)).

[6] = Chemoselectivity study: oxidation by superoxide (KO2), radioHPLC; details: for oxidation by superoxide: 1 mg/mL KO2 in solution, 5 min, room temperature; for oxidation by superoxide in the presence of ascorbic acid: KO2 plus ascorbic acid 1 mg/mL
Procedure: The different oxidants were prepared in PBS (900 μL). The ^18F-labelled compound was formulated as 0.5-2 MBq in 100 μL ethanol and added to the oxidant PBS solution. The final reaction mixture contains the ^18F-labelled compound (0.5-2 MBq) in the presence of 100 μM oxidant in PBS with 10% ethanol (final volume 1000 μL). The reaction was kept at room temperature for 5 min, after which it was injected into the HPLC for analysis. • Superoxide (O2^−): The ^18F-labelled compound in ethanol (100 μL) was added to PBS (900 μL) and the resulting solution was then added to a vial containing solid KO2 (1 mg), to make up a reaction mixture with 10 mM O2^−. • Hydrogen peroxide (H202): H2O2 (10 mM stock solution, 10 μL) was diluted in PBS (890 μL) followed by addition of the ^18F-labelled compound in ethanol (100 μL), to a final concentration of 100 μM. • Hydroxyl radical (⋅OH): hydroxyl radicals were generated in situ by reacting hydrogen peroxide (H202, 100 μM) with iron II ([…]). FeSO2.7H2O (5 mM stock, 200 μL) was diluted in PBS (690 μL) and H2O2 (10 mM stock, 10 μL) was added, followed by the ^18F-labelled compound in 100 μL ethanol. • Iron (II) sulfate heptahydrate (Fe^2+) (control): FeSO2.7H2O (5 mM stock, 200 μL) was diluted to a final concentration of 1000 μM in PBS (700 μL), and the ^18F-labelled compound in 100 μL ethanol was added after. • tert-butyl hydroperoxide (TBHP): TBHP (10 mM stock, 10 μL) was diluted in PBS (890 μL) followed by addition of the ^18F-labelled compound in ethanol, to a final concentration of 100 μM. • Tert-butoxy radical (t-BuO⋅): t-butoxy radicals were generated in situ by reacting tert-butyl hydroperoxide (TBHP, 100 μM) with Fe^2+ (1000 μM). FeSO2.7H2O (5 mM stock, 200 μL) was diluted in PBS (690 μL) and TBHP (10 mM stock, 1 μL) was added, followed by the ^18F-labelled compound in ethanol. • Peroxynitrite (ONOO^−): peroxynitrite was generated in situ by spontaneous decomposition of 3-morpholinosydnomine (SIN-1) in solution. SIN-1 (5 mM stock, 1 μL) was diluted in PBS (989 μL) containing the ^18F-labelled compound in ethanol (10 μL), to give a final concentration of […] ONOO^− in solution. • Nitric oxide (NO): NO was generated in situ by the NO-donor drug diethylamine NONOate (DEA/NO). A 33 mM stock solution of DEA/NO in 10 mM NaOH was used. 1 μL was diluted in PBS (990 μL) containing the ^18F-labelled compound in ethanol (10 μL), to give a final concentration of 33 μM DEA/NO in solution. The reaction was allowed to take place for 32 min at room temperature (˜20° C.) to allow DEA/NO to decompose into diethylamine and nitric oxide radical (NO) at a concentration of 50 μM, before HPLC analysis.

[7] = tested on: xanthine oxidase/xanthine system; assay: Oxidation by superoxide generated by the xanthine oxidase/xanthine system; assay type: biochemical; details: xanthine (1 mM) and catalase in PBS, 37° C., 5 min
[8] = tested on: oxidative stress in heart (left ventricle); assay: PET/CT imaging in rat model of Doxorubicin-induced cardiotoxicity; assay type: in vivo, rats
Procedure: Wistar rats were randomly divided into two groups and were subjected to the implantation of an Alzet Osmotic minipump containing either Doxorubicin (30 mg/kg) in saline (n=6) or saline only (n=4) as control. The minipump releases the drug at a constant rate over seven days, after which PET/CT imaging was performed.
as §1
Doxorubicin (30 mg/kg) or only vehicle (saline) was delivered to the animals using the osmotic minipump for seven days, after which PET/CT imaging was performed.
Animals were placed in a warm box at 37° C. before being transferred to an anaesthesia induction box under an 02 flow rate of 1 L/min with isofluorane levels of 5%. The anaesthetised rats were transferred to the PET bed and kept under anaesthesia with an O2 flow rate of 1 L/min with isofluorane levels of 2.5%. The radiotracer (0.5-2.2 MBq, 200-600 μL in maximum 5% EtOH in PBS) was injected intravenously via a cannula inserted into a tail vein. The injection start time coincided with the start of the PET acquisition in order to obtain dynamic tracer uptake information. The PET scans were acquired for 30 min, followed by a CT scan, after which the animals were sacrificed and organs harvested as for the biodistribution protocol. The PET data was analysed using VivoQuant.
Subsequently, both groups were subjected to 30 min PET/CT scans with chest cavity in the field of view on day 7 of the treatment. (FIG. 8) The PET images were analysed into three segments: from 0 to 3 min, 3 to 10 min, and 10 to 30 min post-injection of ^18F-FM074.

[9] = Stability in rat serum at 37° C. determined by radioHPLC; assay type: in vitro ADME; details: 1 hour
Procedure: as §2

[10] = PET imaging study in healthy C57BL/6J mice; assay type: in vivo
Procedure: Wild type C57BL/6J mice (male, 26±2 g) were injected intravenously via the tail vein with [^18F]FM074 (1.2±1.1 MBq) in PBS containing sodium ascorbate (0.01 mg/mL). The animals were sacrificed either 3 min post-injection or after a 60 min PET (n=3/group). Organs and tissues of interest were harvested, weighed and the radioactivity measured in a gamma counter. Organ uptake was calculated as percentage injected dose per gram of tissue mass (% ID/g). Data are reported as mean±SD.
The radiotracer is excreted by both renal and hepatobilliary routes in less than 1 hour (FIG. 5).

[11] = healthy C57BL/6 mice, i.v., PET

For `[18F]CCC[n+]1c(-c2ccccc2)sc2ccccc21.[Cl-]` [^18F-FM074-Ox, [^18F]-(3-fluoropropyl)-2-phenylbenzo[d]thiazol-3-ium chloride], the logD [1] was −1.00±0.04, the clearance route ([2]; excreted through the urine) was “quickly cleared by the kidneys” and the “uptake by major organs (brain, heart, lung, spleen)” value [2] was “significantly reduced uptake”.

In the case of `COc1cccc2c1C(=O)c1c(O)c3c(c(O)c1C2=O)C[C@@](O)(C(=O)CO)C[C@@H]3O[C@H]1C[C@H](N)[C@H](O)[C@H](C)O1` [Doxorubicin], the “reduction of left ventricle ejection fraction vs baseline” value ([3]; 30 mg/kg via 7-day osmotic minipump, day 6 compared to day 0) was 15% and the “left ventricle ejection fraction, Doxorubicin treated vs control groups” value ([3]; ultrasound, FIG. 7) was “no significant difference”.

For `COc1ccc(C2Sc3ccccc3N2CCC[18F])cc1` (stereo not drawn) [^18F-FM108, [^18F]3-(3-fluoropropyl)-2-(4-methoxyphenyl)-2,3-dihydrobenzo[d]thiazole], the logD [1] was 0.83±0.12, the “reactivity to other biologically relevant ROS” value [4] was “little or no reactivity” and the “stability in PBS” value ([5]; PBS, 30 minutes (FIG. 3(B))) was “stable”. The oxidation by superoxide [6] was 54±4% and the “oxidation by superoxide in the presence of ascorbic acid” value [6] was 38%.

With `[18F]CCCN1c2ccccc2SC1c1ccccc1` (stereo not drawn) [^18F-FM074, [^18F]3-(3-fluoropropyl)-2-phenyl-2,3-dihydrobenzo[d]thiazole] the “oxidised tracer observed in radioHPLC chromatogram” value [7] was 53%, the “ratio of standard uptake values LV to blood, Doxorubicin-treated vs control rats” value ([8]; 3-10 min post-injection, day 7 of Doxorubicin 30 mg/kg minipump) was “significantly (p<0.05) higher” and the liver uptake ([8]; PET, Doxorubicin model rats, no significant difference between treated and control) was “high uptake”. The “heart uptake ex vivo after the PET/CT scan, treated vs control” value ([8]; ex vivo, after 30 min scan) was “no significant difference”, the “washout rate from the LV, Doxorubicin treated vs control” value ([8]; time-activity curves, FIG. 10) was “two-fold slower” and the logD [1] was 1.00±0.08. The “reactivity to other biologically relevant ROS” value [4] was “little or no reactivity”, the “oxidation by other endogenous ROS” value ([4]; ⋅OH, H2O2, ⋅NO, ONOO^−) was “less than 10%” and the “intact tracer in rat serum” value [9] was 90%. The “stability in 1% ethanol in PBS” value ([5]; 1% ethanol in PBS in the presence of ascorbic acid (0.01 mg/mL), for 4 h, HPLC) was “stable”, the “stability in pure ethanol” value ([5]; pure ethanol, for 4 h (not tested for longer), HPLC) was “stable” and the non-specific background retention ([10]; healthy C57BL/6 mice, heart and brain, PET) was “no non-specific background retention”. The blood clearance [10, 11] was “fast blood clearance”, the “time to excretion by renal and hepatobilliary routes” value [10, 11] was “less than 1 hour” and the tissue penetration [10, 11] was “excellent tissue penetration”. For the same compound, the “uptake by heart and brain” value [10, 11] was “rapidly taken up”, the “bone uptake (defluorination in vivo)” value ([10]; mice, after 1 hour) was “minimal” and the oxidation by superoxide [6] was 58±8%. For the same compound, the “oxidation by superoxide in the presence of ascorbic acid” value [6] was 31±5%, the “clearance from the blood pool” value ([2]; 1 min post-injection) was “fast clearance” and the “time to clearance from major organs” value ([2]; hepatic and renal metabolism, excreted to small intestine and urine) was “under 30 min”. For the same compound, the “uptake by major organs (brain, heart, lung, spleen)” value [2] was “rapid initial uptake” and the “uptake in bone and muscle” value ([2]; within 30 min) was “little uptake”.
